The values below come from patent US20070128217A1 (priority 2003, published 2007).

Assay [1] has as its system control sera (pooled serum of ten healthy LUMC hospital workers; commercial negative donor pooled serum from the Dutch bloodbank). Format: binding, human. Further details: Binding of Control serum LUMC to linear peptides / Binding of Control serum Blood-bank to linear peptides / Binding of Control serum LUMC to looped peptides / Binding of Control Serum Blood-Bank to Looped peptides / Binding of Control serum LUMC to linear peptides of the protein M of SARS-CoV Urbani / Binding of Control serum Blood-bank to linear peptides of the protein M of SARS-CoV Urbani / Binding of Control serum LUMC to looped peptides of the protein M of SARS-CoV Urbani / Binding of Control Serum Blood-Bank to Looped peptides of the protein M of SARS-CoV Urbani: unit not given here.

The test system of assay [2] is rabbit serum obtained by immunizing a rabbit with the SARS-CoV strain Frankfurt 1. Format: binding. Further details: Binding of a rabbit serum to linear peptides / Binding of a rabbit serum to looped peptides / Rabbit serum linear peptides / Rabbit serum looped peptides / Binding of a rabbit serum to linear peptides of protein N of SARS-CoV Urbani (Rabbit serum linear peptides) / Binding of a rabbit serum to looped/cyclic peptides of protein N of SARS-CoV Urbani (Rabbit serum looped peptides): unit not given here.

Assay [3] has as its system antibodies in sera from SARS patients (sera 1a, 1b, 2, 6, 37, 62, London, SARS-yellow, SARS-green). The format is binding, human. Details: Binding of serum 6 to linear peptides of protein X1 of SARS-CoV Urbani / Binding of serum 37 to linear peptides of protein X1 of SARS-CoV Urbani / Binding of serum 6 to looped/cyclic peptide (PEPSCAN-ELISA) / Binding of serum 37 to looped/cyclic peptide (PEPSCAN-ELISA) / Binding of serum 37 to looped/cyclic peptides of protein X1 of SARS-CoV Urbani / Binding of serum 6 to linear peptides of protein X2 / Binding of serum 37 to linear peptides of protein X2 / Binding of serum 37 to looped/cyclic peptides of protein X2 of SARS-CoV Urbani / Binding of serum 6 to linear peptides of protein M of SARS-CoV Urbani / Binding of serum 37 to linear peptides of protein M of SARS-CoV Urbani / Binding of serum 6 to looped/cyclic peptides of protein M of SARS-CoV Urbani / Binding of serum 37 to looped/cyclic peptides of protein M of SARS-CoV Urbani / Binding of serum 6 to linear peptides of protein X3 of SARS-CoV Urbani / Binding of serum 37 to linear peptides of protein X3 of SARS-CoV Urbani / Binding of serum 37 to looped/cyclic peptides of protein X3 of SARS-CoV Urbani / Binding of serum 6 to linear peptides of protein X4 of SARS-CoV Urbani / Binding of serum 37 to linear peptides of protein X4 of SARS-CoV Urbani / Binding of serum 37 to looped/cyclic peptides of protein X4 of SARS-CoV Urbani / Binding of serum 6 to linear peptides of protein X5 of SARS-CoV Urbani / Binding of serum 37 to linear peptides of protein X5 of SARS-CoV Urbani / Binding of serum 37 to looped/cyclic peptides of protein X5 of SARS-CoV Urbani / Binding of serum 6 to linear peptides of protein N of SARS-CoV Urbani / Binding of serum 37 to linear peptides of protein N of SARS-CoV Urbani / Binding of serum 6 to linear peptide (PEPSCAN-ELISA) / Binding of serum 1a to looped/cyclic peptides of protein N of SARS-CoV Urbani / Binding of serum 1b to looped/cyclic peptides of protein N of SARS-CoV Urbani / Binding of serum 2 to looped/cyclic peptides of protein N of SARS-CoV Urbani / Binding of serum 6 to looped/cyclic peptides of protein N of SARS-CoV Urbani / Binding of serum 37 to looped/cyclic peptides of protein N of SARS-CoV Urbani / Binding of serum 62 to looped/cyclic peptides of protein N of SARS-CoV Urbani / Binding of serum London to looped/cyclic peptides of protein N of SARS-CoV Urbani / Binding of serum SARS-green to looped/cyclic peptides of protein N of SARS-CoV Urbani: unit not given here.

As to NLLLLFVTIYSHLLL, in assay [1], the “Binding of Control Serum Blood-Bank to Looped peptides” value came out at 0.5, the “Binding of Control serum Blood-bank to linear peptides” value is 0.4, the “Binding of Control serum LUMC to linear peptides” value amounted to 0.5 and the “Binding of Control serum LUMC to looped peptides” value worked out at 0.6. Further, in assay [2], the “Binding of a rabbit serum to linear peptides” value stood at 0.2 and the “Binding of a rabbit serum to looped peptides” value worked out at 0.6. Further, in assay [3], the “Binding of serum 1a to linear peptides of protein X1 of SARS-CoV Urbani” value was 0.7, the “Binding of serum 1a to looped/cyclic peptide (PEPSCAN-ELISA)” value was determined as 0.5, the “Binding of serum 1b to linear peptides of protein X1 of SARS-CoV Urbani” value came out at 0.5 and the “Binding of serum 1b to looped/cyclic peptide (PEPSCAN-ELISA)” value is 0.4. Besides, in assay [3], the “Binding of serum 2 to linear peptides of protein X1 of SARS-CoV Urbani” value was determined as 0.5, the “Binding of serum 2 to looped/cyclic peptide (PEPSCAN-ELISA)” value was 0.4, the “Binding of serum 6 to linear peptides of protein X1 of SARS-CoV Urbani” value was determined as 0.4 and the “Binding of serum 6 to looped/cyclic peptide (PEPSCAN-ELISA)” value is listed as 0.2. In assay [3], the “Binding of serum 37 to linear peptides of protein X1 of SARS-CoV Urbani” value was found to be 0.5, the “Binding of serum 37 to looped/cyclic peptide (PEPSCAN-ELISA)” value is on record as 0.4, the “Binding of serum 62 to linear peptides of protein X1 of SARS-CoV Urbani” value is on record as 0.4 and the “Binding of serum 62 to looped/cyclic peptide (PEPSCAN-ELISA)” value is reported as 0.5. In addition, in assay [3], the “Binding of serum London to linear peptides of protein X1 of SARS-CoV Urbani” value was determined as 0.2, the “Binding of serum London to looped/cyclic peptide (PEPSCAN-ELISA)” value is given as 0.2, the “Binding of serum SARS-green to linear peptides of protein X1 of SARS-CoV Urbani” value is reported as 0.1 and the “Binding of serum SARS-green to looped/cyclic peptide (PEPSCAN-ELISA)” value came out at 0.2. Also, in assay [3], the “Binding of serum SARS-yellow to linear peptides of protein X1 of SARS-CoV Urbani” value came to 0.3 and the “Binding of serum SARS-yellow to looped/cyclic peptide (PEPSCAN-ELISA)” value amounted to 0.4.

In the case of NLVIGFLFLAWIMLL, in assay [1], the “Binding of Control Serum Blood-Bank to Looped peptides of the protein M of SARS-CoV Urbani” value is given as 0.6, the “Binding of Control serum Blood-bank to linear peptides of the protein M of SARS-CoV Urbani” value was found to be 0.5, the “Binding of Control serum LUMC to linear peptides of the protein M of SARS-CoV Urbani” value turned out to be 0.3 and the “Binding of Control serum LUMC to looped peptides of the protein M of SARS-CoV Urbani” value was 0.8. Further, in assay [2], the “Rabbit serum linear peptides” value was 0.2 and the “Rabbit serum looped peptides” value came to 0.2. Besides, in assay [3], the “Binding of serum 1a to linear peptides of protein M of SARS-CoV Urbani” value is on record as 0.7, the “Binding of serum 1a to looped/cyclic peptides of protein M of SARS-CoV Urbani” value is recorded as 0.7, the “Binding of serum 1b to linear peptides of protein M of SARS-CoV Urbani” value is 0.5 and the “Binding of serum 1b to looped/cyclic peptides of protein M of SARS-CoV Urbani” value was found to be 0.6. In assay [3], the “Binding of serum 2 to linear peptides of protein M of SARS-CoV Urbani” value came to 0.5, the “Binding of serum 2 to looped/cyclic peptides of protein M of SARS-CoV Urbani” value came to 0.5, the “Binding of serum 6 to linear peptides of protein M of SARS-CoV Urbani” value amounted to 0.3 and the “Binding of serum 6 to looped/cyclic peptides of protein M of SARS-CoV Urbani” value came out at 0.6. In assay [3], the “Binding of serum 37 to linear peptides of protein M of SARS-CoV Urbani” value is on record as 0.6, the “Binding of serum 37 to looped/cyclic peptides of protein M of SARS-CoV Urbani” value is 0.6, the “Binding of serum 62 to linear peptides of protein M of SARS-CoV Urbani” value came out at 0.7 and the “Binding of serum 62 to looped/cyclic peptides of protein M of SARS-CoV Urbani” value is reported as 0.7. Also, in assay [3], the “Binding of serum London to linear peptides of protein M of SARS-CoV Urbani” value came to 0.3, the “Binding of serum London to looped/cyclic peptides of protein M of SARS-CoV Urbani” value was 0.3, the “Binding of serum SARS-green to linear peptides of protein M of SARS-CoV Urbani” value came out at 0.2 and the “Binding of serum SARS-green to looped/cyclic peptides of protein M of SARS-CoV Urbani” value is on record as 0.3. For the same sequence, in assay [3], the “Binding of serum SARS-yellow to linear peptides of protein M of SARS-CoV Urbani” value worked out at 0.0 and the “Binding of serum SARS-yellow to looped/cyclic peptides of protein M of SARS-CoV Urbani” value came to 0.5.
